# Results as given in US12503471B2, “Triazatricycle compounds for the treatment of autoimmune disease” (Hoffmann-La Roche Inc., priority 2019, dated 2025).
# Target: T1, human TLR9 (Homo sapiens, UniProt Q9NR96)
# T1 construct: host or cells: HEK293 (HEK-Blue hTLR9)
# T1 sequence (Q9NR96 26-1032): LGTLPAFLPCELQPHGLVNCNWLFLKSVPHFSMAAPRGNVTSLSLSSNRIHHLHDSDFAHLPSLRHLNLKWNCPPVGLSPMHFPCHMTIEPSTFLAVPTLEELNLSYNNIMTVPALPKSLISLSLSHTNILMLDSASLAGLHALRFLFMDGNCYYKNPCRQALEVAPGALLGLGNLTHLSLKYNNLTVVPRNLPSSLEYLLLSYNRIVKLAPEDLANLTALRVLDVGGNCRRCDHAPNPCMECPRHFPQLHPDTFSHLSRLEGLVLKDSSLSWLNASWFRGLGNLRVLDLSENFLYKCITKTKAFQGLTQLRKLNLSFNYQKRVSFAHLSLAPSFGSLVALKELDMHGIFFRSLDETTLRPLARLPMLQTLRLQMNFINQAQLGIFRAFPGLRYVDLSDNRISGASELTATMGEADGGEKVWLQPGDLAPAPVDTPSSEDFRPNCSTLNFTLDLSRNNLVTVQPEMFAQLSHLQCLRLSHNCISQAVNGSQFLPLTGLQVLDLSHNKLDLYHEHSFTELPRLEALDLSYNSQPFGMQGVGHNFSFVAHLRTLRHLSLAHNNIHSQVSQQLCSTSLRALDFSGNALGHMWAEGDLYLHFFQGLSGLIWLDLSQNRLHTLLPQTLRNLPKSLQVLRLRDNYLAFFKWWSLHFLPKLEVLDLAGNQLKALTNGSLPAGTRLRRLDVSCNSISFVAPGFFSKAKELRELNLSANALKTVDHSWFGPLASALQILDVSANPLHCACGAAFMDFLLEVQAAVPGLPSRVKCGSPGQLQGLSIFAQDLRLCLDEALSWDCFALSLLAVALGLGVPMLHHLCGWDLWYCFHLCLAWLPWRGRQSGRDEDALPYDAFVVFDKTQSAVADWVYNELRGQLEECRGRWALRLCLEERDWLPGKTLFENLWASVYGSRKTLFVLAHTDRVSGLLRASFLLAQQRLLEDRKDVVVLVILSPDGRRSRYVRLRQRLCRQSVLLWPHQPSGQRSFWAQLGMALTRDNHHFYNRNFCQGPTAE
# Experiment: HEK293-Blue-hTLR-9 cells assay
# Type: cell-based
# Conditions: HEK293-Blue-hTLR9 cells, ODN2006 stimulation, 20 hrs, SEAP reporter; read-out: HEK/hTLR9 IC50
# Excerpt: HEK293-Blue-hTLR-9 Cells Assay:
# A stable HEK293-Blue-hTLR-9 cell line was purchased from InvivoGen (Cat. #: hkb-htlr9, San Diego, Calif., USA). These cells were originally designed for studying the stimulation of human TLR9 by monitoring the activation of NF-κB. A SEAP (secreted embryonic alkaline phosphatase) reporter gene was placed under the control of the IFN-β minimal promoter fused to five NF-κB and AP-1-binding sites. The SEAP was induced by activating NF-κB and AP-1 via stimulating HEK-Blue hTLR9 cells with TLR9 ligands. Therefore the reporter expression was declined by TLR9 antagonist under the stimulation of a ligand, such as ODN2006 (Cat. #: tlrl-2006-1, Invivogen, San Diego, Calif., USA), for incubation of 20 hrs. The cell culture supernatant SEAP reporter activity was determined using QUANTI-Blue^TM kit (Cat. #: rep-qbl, Invivogen, San Diego, Calif., USA) at a wavelength of 640 nm, a detection medium that turns purple or blue in the presence of alkaline phosphatase.
# HEK293-Blue-hTLR9 cells were incubated at a density of 250,000˜450,000 cells/mL in a volume of 170 μL in a 96-well plate in Dulbecco's Modified Eagle's medium (DMEM) containing 4.5 g/L glucose, 50 U/mL penicillin, […] streptomycin, […] Normocin, 2 mM L-glutamine, 10% (v/v) heat-inactivated fetal bovine serum with addition of 20 μL test compound in a serial dilution in the presence of final DMSO at 1% and 10 μL of 20 uM ODN2006 in above DMEM, perform incubation under 37° C. in a CO2 incubator for 20 hrs. Then 20 μL of the supernatant from each well was incubated with 180 μL Quanti-blue substrate solution at 37° C. for 2 h and the absorbance was read at 620-655 nm using a spectrophotometer. The signaling pathway that TLR9 activation leads to downstream NF-κB activation has been widely accepted, and therefore similar reporter assay was modified for evaluating TLR9 antagonist.
row,SMILES,IC50 [nM]
1,"[2H]c1ccc2c(N3C[C@@H](C)N4Cc5nc(N6CC[C@](C)(N)C6)ccc5[C@H]4C3)ccc(C#N)c2n1 [Example 8, 5-[(2S,6R)-11-[(3S)-3-amino-3-methyl-pyrrolidin-1-yl]-6-methyl-4,7,10-triazatricyclo[7.4.0.02,7]trideca-1(9),10,12-trien-4-yl]-2-deuterio-quinoline-8-carbonitrile]",139
2,"CC1(N)CCN(c2ccc3c(n2)CN2CCN(c4ccc(C#N)c5ncccc45)C[C@@H]32)CC1 [Example 4A, 5-[(2R)-11-(4-amino-4-methyl-1-piperidyl)-4,7,10-triazatricyclo[7.4.0.02,7]trideca-1(9),10,12-trien-4-yl]quinoline-8-carbonitrile]",56.6
3,"[2H]c1ccc2c(N3C[C@@H](C)N4Cc5nc(N6CC[C@@](C)(N)C6)ccc5[C@H]4C3)ccc(C#N)c2n1 [Example 7, 5-[(2S,6R)-11-[(3R)-3-amino-3-methyl-pyrrolidin-1-yl]-6-methyl-4,7,10-triazatricyclo[7.4.0.02,7]trideca-1(9),10,12-trien-4-yl]-2-deuterio-quinoline-8-carbonitrile]",236
4,"[2H]c1ccc2c(N3C[C@@H](C)N4Cc5nc(N6CCC7(CNC7)C6)ccc5[C@H]4C3)ccc(C#N)c2n1 [Example 9, 2-Deuterio-5-[(2S,6R)-11-(2,6-diazaspiro[3.4]octan-6-yl)-6-methyl-4,7,10-triazatricyclo[7.4.0.02,7]trideca-1(9),10,12-trien-4-yl]quinoline-8-carbonitrile]",106
5,"C[C@@H]1CN(c2ccc(C#N)c3ncccc23)C[C@@H]2c3cnc(N4CCNCC4)cc3CN12 [Example 2, 5-[(2S,6R)-6-methyl-11-piperazin-1-yl-4,7,12-triazatricyclo[7.4.0.02,7]trideca-1(9),10,12-trien-4-yl] quinoline-8-carbonitrile]",449
6,"C[C@@H]1CN(c2ccc(C#N)c3ncccc23)C[C@@H]2c3ccc(N4CCNCC4)nc3CN12 [Example 5, 5-[(2S,6R)-6-methyl-11-piperazin-1-yl-4,7,10-triazatricyclo[7.4.0.02,7]trideca-1(9),10,12-trien-4-yl]quinoline-8-carbonitrile]",252
7,"[2H]c1ccc2c(N3C[C@@H](C)N4Cc5nc(N6CC[C@H]7CNC[C@H]76)ccc5[C@H]4C3)ccc(C#N)c2n1 [Example 10, 5-[(2S,6R)-11-[(3aS,6aS)-3,3a,4,5,6,6a-hexahydro-2H-pyrrolo[2,3-c]pyrrol-1-yl]-6-methyl-4,7,10-triazatricyclo[7.4.0.02,7]trideca-1(9),10,12-trien-4-yl]-2-deuterio-quinoline-8-carbonitrile]",186
8,"C[C@@H]1CN(c2ccc(C#N)c3ncccc23)C[C@@H]2c3ccc(N4CC5CNCC(C4)O5)nc3CN12 [Example 6, 5-[(2S,6R)-6-methyl-11-(9-oxa-3,7-diazabicyclo[3.3.1]nonan-3-yl)-4,7,10-triazatricyclo[7.4.0.02,7]trideca-1(9),10,12-trien-4-yl]quinoline-8-carbonitrile]",195
9,"N#Cc1ccc(N2CCN3Cc4nc(N5CCNCC5)ccc4[C@@H]3C2)c2cccnc12 [Example 3A, 5-[(2R)-11-piperazin-1-yl-4,7,10-triazatricyclo[7.4.0.02,7]trideca-1(9),10,12-trien-4-yl]quinoline-8-carbonitrile]",142

# The remaining lines, values ahead:
row,IC50 [nM],SMILES
1,206,"C[C@@H]1CN(c2ccc(C#N)c3ncccc23)C[C@@H]2c3ccc(N4CCCNCC4)nc3CN12 [Example 20, 5-[(2S,6R)-11-(1,4-diazepan-1-yl)-6-methyl-4,7,10-triazatricyclo[7.4.0.02,7]trideca-1(9),10,12-trien-4-yl]quinoline-8-carbonitrile]"
2,274,"[2H]c1ccc2c(N3C[C@@H](C)N4Cc5nc(O[C@H]6CCNC6)ccc5[C@H]4C3)ccc(C#N)c2n1 [Example 25, 2-Deuterio-5-[(2S,6R)-6-methyl-11-[(3S)-pyrrolidin-3-yl]oxy-4,7,10-triazatricyclo[7.4.0.02,7]trideca-1(9),10,12-trien-4-yl]quinoline-8-carbonitrile]"
3,289,"[2H]c1ccc2c(N3C[C@@H](C)N4Cc5nc(N6CC[C@H](N)[C@H](OC)C6)ccc5[C@H]4C3)ccc(C#N)c2n1 [Example 13, 5-[(2S,6R)-11-[(3R,4S)-4-amino-3-methoxy-1-piperidyl]-6-methyl-4,7,10-triazatricyclo[7.4.0.02,7]trideca-1(9),10,12-trien-4-yl]-2-deuterio-quinoline-8-carbonitrile]"
4,142,"[2H]c1ccc2c(N3C[C@@H](C)N4Cc5nc(N6CCC(C)(N)CC6)ccc5[C@H]4C3)ccc(C#N)c2n1 [Example 19, 5-[(2S,6R)-11-(4-amino-4-methyl-1-piperidyl)-6-methyl-4,7,10-triazatricyclo[7.4.0.02,7]trideca-1(9),10,12-trien-4-yl]-2-deuterio-quinoline-8-carbonitrile]"
5,305,"[2H]c1ccc2c(N3C[C@@H](C)N4Cc5nc(N6CC[C@H](N)[C@@H](OC)C6)ccc5[C@H]4C3)ccc(C#N)c2n1 [Example 12, 5-[(2S,6R)-11-[(3S,4S)-4-amino-3-methoxy-1-piperidyl]-6-methyl-4,7,10-triazatricyclo[7.4.0.02,7]trideca-1(9),10,12-trien-4-yl]-2-deuterio-quinoline-8-carbonitrile]"
6,202,"[2H]c1ccc2c(N3C[C@@H](C)N4Cc5nc(N6CC[C@@H](N)[C@H](OC)C6)ccc5[C@H]4C3)ccc(C#N)c2n1 [Example 11, 5-[(2S,6R)-11-[(3R,4R)-4-amino-3-methoxy-1-piperidyl]-6-methyl-4,7,10-triazatricyclo[7.4.0.02,7]trideca-1(9),10,12-trien-4-yl]-2-deuterio-quinoline-8-carbonitrile]"
7,118,"[2H]c1ccc2c(N3C[C@@H](C)N4Cc5nc(OC6CCNCC6)ccc5[C@H]4C3)ccc(C#N)c2n1 [Example 24, 2-Deuterio-5-[(2S,6R)-6-methyl-11-(4-piperidyloxy)-4,7,10-triazatricyclo[7.4.0.02,7]trideca-1(9),10,12-trien-4-yl]quinoline-8-carbonitrile]"
8,53.4,"[2H]c1ccc2c(N3C[C@@H](C)N4Cc5nc(N6C[C@H]7C[C@@H]6CN7)ccc5[C@H]4C3)ccc(C#N)c2n1 [Example 17, 2-Deuterio-5-[(2S,6R)-11-[(1R,4R)-2,5-diazabicyclo[2.2.1]heptan-2-yl]-6-methyl-4,7,10-triazatricyclo[7.4.0.02,7]trideca-1(9),10,12-trien-4-yl]quinoline-8-carbonitrile]"
9,212,"[2H]c1ccc2c(N3C[C@@H](C)N4Cc5nc(N6CC[C@@H](OC)[C@H](N)C6)ccc5[C@H]4C3)ccc(C#N)c2n1 [Example 15, 5-[(2S,6R)-11-[(3R,4R)-3-amino-4-methoxy-1-piperidyl]-6-methyl-4,7,10-triazatricyclo[7.4.0.02,7]trideca-1(9),10,12-trien-4-yl]-2-deuterio-quinoline-8-carbonitrile]"
10,121,"[2H]c1ccc2c(N3C[C@@H](C)N4Cc5nc(N6C[C@@H]7C[C@H]6CN7)ccc5[C@H]4C3)ccc(C#N)c2n1 [Example 16, 2-Deuterio-5-[(2S,6R)-11-[(1S,4S)-2,5-diazabicyclo[2.2.1]heptan-2-yl]-6-methyl-4,7,10-triazatricyclo[7.4.0.02,7]trideca-1(9),10,12-trien-4-yl]quinoline-8-carbonitrile]"
